Experimental data: ChEMBL document CHEMBL4177611, “Discovery of aminocyclohexene analogues as selective and orally bioavailable hNav1.7 inhibitors for analgesia” (Bioorg Med Chem Lett, 2017)
Each block holds one compound with its values, some of them ahead of it. Calls of active or inactive are those of the source.

Experiments:
[1] = Volume of distribution at steady state in Sprague-Dawley rat administered as single iv bolus by LC-MS/MS analysis; assay type: ADME, organism-based; conditions: in vivo, read-out: Vdss
[2] = biological target: Sodium channel protein type 4 subunit alpha (Homo sapiens, UniProt P35499); assay type: ADME
[3] = Drug level in po dosed rat plasma treated with 5-chloro-4-(((1R,6R)-6-(ethylamino)-2-(4-fluorophenyl)cyclohex-2-enyl)methoxy)-2-fluoro-N-(thiazol-4-yl)benzenesulfonamide; assay type: ADME, organism-based; conditions: in vivo
[4] = Half life in Sprague-Dawley rat at 2 mg/kg administered as single dose via oral gavage by LC-MS/MS analysis; assay type: ADME, organism-based; conditions: in vivo
[5] = Fraction unbound in rat plasma at 2 uM after 4 hrs by LC-MS/MS analysis; assay type: ADME, cell-free
[6] = Clearance in Sprague-Dawley rat administered as single iv bolus by LC-MS/MS analysis; assay type: ADME, organism-based; conditions: in vivo
[7] = AUC in Sprague-Dawley rat at 2 mg/kg administered as single dose via oral gavage by LC-MS/MS analysis; assay type: ADME, organism-based; conditions: in vivo
[8] = Cmax in Sprague-Dawley rat at 2 mg/kg administered as single dose via oral gavage by LC-MS/MS analysis; assay type: ADME, organism-based; design: dose 2 mg/kg, route oral; conditions: in vivo
[9] = Fraction unbound in human plasma at 2 uM after 4 hrs by LC-MS/MS analysis; assay type: ADME, cell-free
[10] = Ratio of total drug level in iv dosed rat brain to plasma measured 2 hrs post dose; assay type: ADME, organism-based; conditions: read-out: BPR
[11] = Initial plasma concentration in Sprague-Dawley rat at 0.5 mg/kg administered as single iv bolus by LC-MS/MS analysis; assay type: ADME, organism-based
[12] = test system: Rattus norvegicus; experiment: Unbound AUC (0 to last) in Sprague-Dawley rat at 2 mg/kg administered as single dose via oral gavage by LC-MS/MS analysis; assay type: ADME, organism-based; conditions: in vivo
[13] = Dissociation constant, pKa of the compound; assay type: physicochemical
[14] = Intrinsic clearance in human liver microsomes at 1 uM after 60 mins in presence of NADPH by LC-MS/MS analysis; assay type: ADME, microsome; conditions: read-out: CLH
[15] = test system: Rattus norvegicus; experiment: Antiallodynic activity in Sprague-Dawley rat spinal nerve ligation model assessed as reduction in mechanical allodynia by measuring paw withdrawal threshold at 100 mg/kg, po measured at 2 hrs post dose; assay type: functional, organism-based
[16] = test system: Rattus norvegicus; experiment: Unbound AUC (0 to last) in Sprague-Dawley rat at 10 mg/kg administered as single dose via oral gavage by LC-MS/MS analysis; assay type: ADME, organism-based; conditions: in vivo
[17] = Unbound plasma concentration in Sprague-Dawley rat spinal nerve ligation model at 100 mg/kg administered as single dose via oral gavage measured after 1 hr by LC-MS/MS analysis; assay type: ADME, organism-based; conditions: in vivo
[18] = physchem; conditions: buffer, pH 7.4
[19] = Initial plasma concentration in Sprague-Dawley rat at 3 mg/kg administered as single iv bolus by LC-MS/MS analysis; assay type: ADME, organism-based
[20] = biological target: Cytochrome P450 3A4 (Homo sapiens, UniProt P08684)
[21] = biological target: Cytochrome P450 2C9 (Homo sapiens, UniProt P11712)
[22] = species on record: Homo sapiens; experiment: Selectivity ratio of IC50 for human Nav1.5 expressed in HEK293 cells to IC50 for human Nav1.7 expressed in CHO-K1 cells; assay type: cell-based
[23] = Oral bioavailability in Sprague-Dawley rat at 10 mg/kg administered as single dose via gavage by LC-MS/MS analysis; assay type: ADME, organism-based; conditions: in vivo
[24] = Volume of distribution at steady state in Sprague-Dawley rat at 3 mg/kg administered as single iv bolus by LC-MS/MS analysis; assay type: ADME, organism-based; conditions: in vivo, read-out: Vdss
[25] = Drug uptake in Sprague-Dawley rat dorsal root ganglion at 100 mg/kg, ig measured after 2.5 hrs by LC-MS/MS analysis; assay type: ADME, organism-based; conditions: in vivo, po
[26] = AUC (0 to last) in Sprague-Dawley rat at 10 mg/kg administered as single dose via oral gavage by LC-MS/MS analysis; assay type: ADME, organism-based; design: dose 10 mg/kg, route oral, time 0 - last; conditions: in vivo
[27] = test system: Rattus norvegicus; experiment: Antinociceptive activity in Sprague-Dawley rat formalin-induced nociception model assessed as inhibition of formalin-induced flinches in phase 2 at 30 mg/kg, po administered via oral gavage 60 mins before formalin challenge measured for 1 hr post dose; assay type: functional, organism-based
[28] = Plasma concentration in Sprague-Dawley rat spinal nerve ligation model at 100 mg/kg administered as single dose via oral gavage measured after 2 hrs by LC-MS/MS analysis; assay type: ADME, organism-based
[29] = AUC (0 to last) in Sprague-Dawley rat at 3 mg/kg administered as single iv bolus by LC-MS/MS analysis; assay type: ADME, organism-based; design: dose 3 mg/kg, route intravenous, time 0 - last; conditions: in vivo
[30] = Half life in Sprague-Dawley rat at 3 mg/kg administered as single iv bolus by LC-MS/MS analysis; assay type: ADME, organism-based; conditions: in vivo
[31] = in vitro; conditions: human, Caco-2
[32] = Clearance in Sprague-Dawley rat at 3 mg/kg administered as single iv bolus by LC-MS/MS analysis; assay type: ADME, organism-based; conditions: in vivo
[33] = in vitro; conditions: human, Caco-2; remark: listed apart in the source
[34] = Unbound plasma concentration in Sprague-Dawley rat spinal nerve ligation model at 100 mg/kg administered as single dose via oral gavage measured after 2 hrs by LC-MS/MS analysis; assay type: ADME, organism-based; conditions: in vivo
[35] = biological target: Cytochrome P450 2C19 (Homo sapiens, UniProt P33261)
[36] = species on record: Homo sapiens; experiment: Selectivity ratio of IC50 for human Nav1.4 to IC50 for human Nav1.7 expressed in CHO-K1 cells; assay type: cell-based
[37] = biological target: T1, Cytochrome P450 1A2 (Homo sapiens, UniProt P05177)
T1 sequence (P05177 whole entry): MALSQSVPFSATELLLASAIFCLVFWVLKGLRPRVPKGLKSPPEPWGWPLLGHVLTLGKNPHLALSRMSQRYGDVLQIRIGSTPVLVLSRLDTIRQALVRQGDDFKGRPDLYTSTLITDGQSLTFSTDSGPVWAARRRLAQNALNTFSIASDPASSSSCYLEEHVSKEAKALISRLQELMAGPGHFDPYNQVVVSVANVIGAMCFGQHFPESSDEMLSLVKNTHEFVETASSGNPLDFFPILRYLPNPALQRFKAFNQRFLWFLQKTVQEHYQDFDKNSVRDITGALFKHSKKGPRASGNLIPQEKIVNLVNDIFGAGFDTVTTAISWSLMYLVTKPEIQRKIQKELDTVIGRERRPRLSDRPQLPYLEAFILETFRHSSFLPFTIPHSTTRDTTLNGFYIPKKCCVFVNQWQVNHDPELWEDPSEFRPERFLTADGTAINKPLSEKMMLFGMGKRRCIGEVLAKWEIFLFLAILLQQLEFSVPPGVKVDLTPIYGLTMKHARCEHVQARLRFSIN

[38] = biological target: Sodium channel protein type 5 subunit alpha (Homo sapiens, UniProt Q14524); experiment: Inhibition of human Nav1.5 expressed in HEK293 cells at -120 mV holding potential incubated over 5 mins measured at 15 secs interval by Qpatch clamp assay; assay type: cell-based
[39] = AUC in Sprague-Dawley rat at 10 mg/kg administered as single dose via oral gavage by LC-MS/MS analysis; assay type: ADME, organism-based; conditions: in vivo
[40] = Plasma concentration in Sprague-Dawley rat spinal nerve ligation model at 100 mg/kg administered as single dose via oral gavage measured after 1 hr by LC-MS/MS analysis; assay type: ADME, organism-based
[41] = biological target: Voltage-gated inwardly rectifying potassium channel KCNH2 (Homo sapiens, UniProt Q12809)
[42] = physchem; conditions: buffer, pH 7.4; remark: listed apart in the source
[43] = test system: Rattus norvegicus; experiment: Antinociceptive activity in Sprague-Dawley rat formalin-induced nociception model assessed as inhibition of formalin-induced flinches in phase 1 at 30 mg/kg, po administered via oral gavage 60 mins before formalin challenge measured for 1 hr post dose; assay type: functional, organism-based
[44] = biological target: Cytochrome P450 2D6 (Homo sapiens, UniProt P10635)
[45] = Tmax in Sprague-Dawley rat at 10 mg/kg administered as single dose via oral gavage by LC-MS/MS analysis; assay type: ADME, organism-based; conditions: in vivo
[46] = Intrinsic clearance in rat liver microsomes at 1 uM after 60 mins in presence of NADPH by LC-MS/MS analysis; assay type: ADME, microsome; conditions: read-out: CLH
[47] = Plasma concentration in Sprague-Dawley rat spinal nerve ligation model at 100 mg/kg administered as single dose via oral gavage measured after 4 hrs by LC-MS/MS analysis; assay type: ADME, organism-based
[48] = Half life in Sprague-Dawley rat at 10 mg/kg administered as single dose via oral gavage by LC-MS/MS analysis; assay type: ADME, organism-based; conditions: in vivo
[49] = biological target: Sodium channel protein type 9 subunit alpha (Homo sapiens, UniProt Q15858); experiment: Inhibition of human Nav1.7 expressed in CHO-K1 cells at -120 mV holding potential incubated over 5 mins measured at 15 secs interval by Qpatch clamp assay; assay type: cell-based
[50] = Unbound plasma concentration in Sprague-Dawley rat spinal nerve ligation model at 100 mg/kg administered as single dose via oral gavage measured after 4 hrs by LC-MS/MS analysis; assay type: ADME, organism-based; conditions: in vivo
[51] = Cmax in Sprague-Dawley rat at 10 mg/kg administered as single dose via oral gavage by LC-MS/MS analysis; assay type: ADME, organism-based; design: dose 10 mg/kg, route oral; conditions: in vivo

Sequence of Sodium channel protein type 4 subunit alpha (P35499 whole entry): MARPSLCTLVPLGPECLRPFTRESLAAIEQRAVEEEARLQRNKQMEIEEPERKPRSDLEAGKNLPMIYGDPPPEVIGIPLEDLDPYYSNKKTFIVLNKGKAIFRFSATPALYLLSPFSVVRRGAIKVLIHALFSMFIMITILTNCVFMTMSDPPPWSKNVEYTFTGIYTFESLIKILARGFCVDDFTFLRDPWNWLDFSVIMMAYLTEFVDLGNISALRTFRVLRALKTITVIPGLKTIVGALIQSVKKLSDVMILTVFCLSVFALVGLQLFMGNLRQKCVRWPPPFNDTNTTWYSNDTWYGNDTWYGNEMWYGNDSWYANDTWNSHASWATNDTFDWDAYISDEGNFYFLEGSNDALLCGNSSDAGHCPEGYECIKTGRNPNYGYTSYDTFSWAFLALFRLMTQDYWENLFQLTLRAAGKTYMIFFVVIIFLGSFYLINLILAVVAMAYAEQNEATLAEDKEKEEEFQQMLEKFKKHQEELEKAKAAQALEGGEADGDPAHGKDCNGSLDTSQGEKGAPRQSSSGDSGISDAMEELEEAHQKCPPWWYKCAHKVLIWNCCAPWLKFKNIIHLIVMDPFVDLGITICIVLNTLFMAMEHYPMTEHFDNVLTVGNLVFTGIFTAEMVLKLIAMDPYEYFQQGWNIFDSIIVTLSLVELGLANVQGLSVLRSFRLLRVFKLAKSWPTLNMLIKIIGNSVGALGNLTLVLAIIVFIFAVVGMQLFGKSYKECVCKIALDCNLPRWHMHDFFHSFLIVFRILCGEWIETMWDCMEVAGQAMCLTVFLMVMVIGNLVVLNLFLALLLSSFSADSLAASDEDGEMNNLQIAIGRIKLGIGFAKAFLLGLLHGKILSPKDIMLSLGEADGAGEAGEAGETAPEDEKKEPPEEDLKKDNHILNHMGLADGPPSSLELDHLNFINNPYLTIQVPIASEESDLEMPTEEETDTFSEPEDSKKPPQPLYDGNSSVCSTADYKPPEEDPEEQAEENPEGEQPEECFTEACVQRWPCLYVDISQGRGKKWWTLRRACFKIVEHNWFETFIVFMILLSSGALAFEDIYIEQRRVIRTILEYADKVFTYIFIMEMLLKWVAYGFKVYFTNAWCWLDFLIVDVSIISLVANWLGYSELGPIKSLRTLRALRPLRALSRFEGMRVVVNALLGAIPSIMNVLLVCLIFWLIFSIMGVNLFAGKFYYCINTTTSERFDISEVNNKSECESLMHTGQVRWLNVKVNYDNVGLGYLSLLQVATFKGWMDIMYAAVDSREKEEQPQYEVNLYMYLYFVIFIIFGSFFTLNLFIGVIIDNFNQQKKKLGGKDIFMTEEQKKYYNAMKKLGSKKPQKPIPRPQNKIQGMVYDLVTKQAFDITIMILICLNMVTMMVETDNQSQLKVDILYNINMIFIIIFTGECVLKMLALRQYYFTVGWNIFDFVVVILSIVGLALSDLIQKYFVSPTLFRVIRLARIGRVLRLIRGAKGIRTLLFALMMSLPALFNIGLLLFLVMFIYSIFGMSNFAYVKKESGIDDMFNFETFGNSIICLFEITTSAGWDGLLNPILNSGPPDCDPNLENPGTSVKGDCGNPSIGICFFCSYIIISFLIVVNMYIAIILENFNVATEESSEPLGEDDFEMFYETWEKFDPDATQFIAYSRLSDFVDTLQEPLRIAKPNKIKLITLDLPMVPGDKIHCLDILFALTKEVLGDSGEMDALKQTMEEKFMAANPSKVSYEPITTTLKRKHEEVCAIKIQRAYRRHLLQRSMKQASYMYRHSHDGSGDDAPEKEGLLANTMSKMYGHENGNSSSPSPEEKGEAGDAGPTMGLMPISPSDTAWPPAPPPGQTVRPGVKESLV
Sequence of Sodium channel protein type 5 subunit alpha (Q14524 whole entry): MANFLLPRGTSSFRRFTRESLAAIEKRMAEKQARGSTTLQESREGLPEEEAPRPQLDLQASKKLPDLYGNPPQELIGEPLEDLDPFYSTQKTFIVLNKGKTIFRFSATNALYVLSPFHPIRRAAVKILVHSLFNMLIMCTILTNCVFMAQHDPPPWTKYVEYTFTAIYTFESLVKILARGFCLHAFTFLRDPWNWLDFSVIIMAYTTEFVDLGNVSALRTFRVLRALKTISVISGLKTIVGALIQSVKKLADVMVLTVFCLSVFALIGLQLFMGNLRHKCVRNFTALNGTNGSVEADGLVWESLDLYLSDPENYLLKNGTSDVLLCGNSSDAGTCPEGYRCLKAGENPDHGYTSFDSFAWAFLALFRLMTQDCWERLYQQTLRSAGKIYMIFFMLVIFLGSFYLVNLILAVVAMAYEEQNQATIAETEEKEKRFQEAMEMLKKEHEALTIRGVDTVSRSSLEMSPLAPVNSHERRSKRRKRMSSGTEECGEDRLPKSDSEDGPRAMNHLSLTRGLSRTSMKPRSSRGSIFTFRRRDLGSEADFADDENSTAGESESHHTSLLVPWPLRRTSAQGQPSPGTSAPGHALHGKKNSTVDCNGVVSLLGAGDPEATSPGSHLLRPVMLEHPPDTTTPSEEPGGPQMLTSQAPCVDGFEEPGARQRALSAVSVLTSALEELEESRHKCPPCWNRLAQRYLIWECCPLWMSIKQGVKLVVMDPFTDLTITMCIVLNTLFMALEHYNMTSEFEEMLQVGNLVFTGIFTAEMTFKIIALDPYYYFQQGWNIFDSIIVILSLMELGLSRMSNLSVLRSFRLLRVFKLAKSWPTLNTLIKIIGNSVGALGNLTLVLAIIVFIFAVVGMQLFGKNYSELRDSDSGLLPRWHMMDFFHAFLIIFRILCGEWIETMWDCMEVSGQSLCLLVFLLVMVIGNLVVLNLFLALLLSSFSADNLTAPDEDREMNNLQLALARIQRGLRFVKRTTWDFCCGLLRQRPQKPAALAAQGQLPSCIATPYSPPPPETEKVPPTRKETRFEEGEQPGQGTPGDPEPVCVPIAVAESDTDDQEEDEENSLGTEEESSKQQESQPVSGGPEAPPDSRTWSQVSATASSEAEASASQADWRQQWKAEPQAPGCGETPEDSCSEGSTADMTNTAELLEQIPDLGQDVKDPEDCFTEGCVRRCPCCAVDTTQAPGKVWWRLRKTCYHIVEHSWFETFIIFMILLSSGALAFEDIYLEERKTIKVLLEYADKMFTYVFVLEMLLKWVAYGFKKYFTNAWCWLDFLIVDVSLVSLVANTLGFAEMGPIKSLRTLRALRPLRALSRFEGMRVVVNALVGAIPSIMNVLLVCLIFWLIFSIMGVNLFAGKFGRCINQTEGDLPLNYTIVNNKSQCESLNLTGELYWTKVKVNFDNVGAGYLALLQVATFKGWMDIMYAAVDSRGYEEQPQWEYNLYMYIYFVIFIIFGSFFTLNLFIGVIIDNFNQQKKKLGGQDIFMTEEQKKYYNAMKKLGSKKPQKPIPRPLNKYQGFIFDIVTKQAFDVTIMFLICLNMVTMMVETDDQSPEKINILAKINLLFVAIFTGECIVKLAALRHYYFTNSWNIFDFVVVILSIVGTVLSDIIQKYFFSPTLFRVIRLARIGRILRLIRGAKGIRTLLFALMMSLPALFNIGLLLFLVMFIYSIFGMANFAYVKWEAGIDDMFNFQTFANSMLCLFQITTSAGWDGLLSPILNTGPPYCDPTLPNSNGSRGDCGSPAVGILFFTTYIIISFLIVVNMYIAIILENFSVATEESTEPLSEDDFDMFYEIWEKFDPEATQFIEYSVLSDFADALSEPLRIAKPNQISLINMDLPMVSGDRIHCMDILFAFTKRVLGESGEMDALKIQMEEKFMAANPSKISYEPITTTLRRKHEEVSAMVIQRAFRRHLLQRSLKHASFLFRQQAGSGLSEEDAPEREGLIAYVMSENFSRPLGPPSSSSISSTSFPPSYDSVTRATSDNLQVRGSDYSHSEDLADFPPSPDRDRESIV
Sequence of Cytochrome P450 2C19 (P33261 whole entry): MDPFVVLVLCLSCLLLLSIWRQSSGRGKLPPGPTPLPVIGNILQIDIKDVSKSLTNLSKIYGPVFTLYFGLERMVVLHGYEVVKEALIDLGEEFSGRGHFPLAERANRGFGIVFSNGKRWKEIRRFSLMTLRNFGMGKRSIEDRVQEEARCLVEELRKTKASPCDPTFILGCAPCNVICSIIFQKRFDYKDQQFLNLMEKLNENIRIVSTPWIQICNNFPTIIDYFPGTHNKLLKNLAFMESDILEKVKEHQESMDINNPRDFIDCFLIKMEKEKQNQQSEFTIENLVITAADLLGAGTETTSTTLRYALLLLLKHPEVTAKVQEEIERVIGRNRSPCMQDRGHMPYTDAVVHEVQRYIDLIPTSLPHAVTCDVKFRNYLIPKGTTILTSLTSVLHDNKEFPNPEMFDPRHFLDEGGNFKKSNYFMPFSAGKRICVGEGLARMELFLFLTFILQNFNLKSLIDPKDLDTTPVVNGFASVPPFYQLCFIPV
Sequence of Cytochrome P450 2C9 (P11712 whole entry): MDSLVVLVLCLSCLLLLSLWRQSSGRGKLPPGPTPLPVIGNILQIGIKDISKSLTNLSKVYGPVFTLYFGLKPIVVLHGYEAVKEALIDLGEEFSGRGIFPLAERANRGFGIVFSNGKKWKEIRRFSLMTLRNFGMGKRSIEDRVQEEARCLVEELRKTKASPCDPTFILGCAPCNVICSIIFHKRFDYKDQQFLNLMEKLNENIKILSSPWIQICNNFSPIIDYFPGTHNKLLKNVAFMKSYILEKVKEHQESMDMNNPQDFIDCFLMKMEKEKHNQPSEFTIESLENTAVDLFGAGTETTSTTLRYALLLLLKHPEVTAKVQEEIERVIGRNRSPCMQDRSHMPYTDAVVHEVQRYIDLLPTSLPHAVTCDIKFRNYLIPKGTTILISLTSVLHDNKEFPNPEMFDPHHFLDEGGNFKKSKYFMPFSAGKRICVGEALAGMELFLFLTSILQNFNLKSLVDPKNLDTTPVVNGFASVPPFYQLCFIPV

SMILES: N[C@@H]1CCC=C(c2ccc(F)cc2)[C@H]1COc1cc(F)c(S(=O)(=O)Nc2cscn2)cc1Cl
- Vd [1]: 8.91 L/kg
- IC50 [2]: 4 µM
- Drug uptake [3]: Active
- half-life [4]: 2.74 h
- fraction unbound at 4 h, 2 µM [5]: 0.02
- clearance [6]: 39 to 39.2 mL/min/kg
- AUC [7]: 0.25 µM·h
- Cmax [8]: 50 nM
- fraction unbound at 4 h, 2 µM [9]: 0.008
- Kp at 2 h [10]: 0.13
- C0 [11]: 410 nM
- fAUClast [12]: 0.005 µM·h
- pKa [13]: 6.13 to 9.05

- CLint scaled at 1 µM [14]: 17.5 mL/min/kg
- Vd [1]: 5.77 L/kg
- fAUClast [16]: 0.141 µM·h
- Cp(f) [17]: 108 nM
- solubility thermodynamic [18]: 135 µM
- IC50 [2]: 2.9 µM
- C0 [19]: 2800 nM
- IC50 [20]: 33 µM
- IC50 [21]: 11.8 µM
- bioavailability [23]: 30%
- Vd [24]: 5.77 L/kg
- Drug uptake [25]: 3.1 µM/g
- AUC(0-t) [26]: 4.86 µM·h
- concentration at 2 h [28]: 3820 nM
- AUC(0-t) [29]: 4.92 µM·h
- half-life [30]: 3.64 h
- efflux ratio at 2 h, 2 µM [31]: 251
- clearance [32]: 19.8 mL/min/kg
- Papp A→B at 2 h, 2 µM [33]: 0.04 ×10⁻⁶ cm/s
- fraction unbound at 4 h, 2 µM [5]: 0.029
- Cp(f) [34]: 110 nM
- IC50 [35]: 26.2 µM
- clearance [6]: 19.8 mL/min/kg
- IC50 [37]: > 50 µM
- fraction unbound at 4 h, 2 µM [9]: 0.004
- AUC [39]: 4.86 µM·h
- concentration at 1 h [40]: 3740 nM
- logD [42]: 1.5
- IC50 [44]: 3 µM
- Tmax [45]: 2.67 h
- CLint scaled at 1 µM [46]: 30.4 mL/min/kg
- concentration at 4 h [47]: 3160 nM
- half-life [48]: 3.39 h
- IC50 [49]: 0.088 µM
- Cp(f) [50]: 91 nM
- Cmax [51]: 660 nM
- pKa [13]: 7.09 to 9.18
SMILES: Cl.N[C@@H]1CCC=C(c2ccc(F)cc2)[C@H]1CNc1cc(F)c(S(=O)(=O)Nc2cscn2)cc1Cl
- Activity [15]: Active
- Ratio IC50 [22]: > 30
- inhibition [27]: Active
- Ratio IC50 [36]: > 30
- IC50 [38]: 4.02 µM
- IC50 [41]: 4.6 µM
- inhibition [43]: inactive
